Data on five compounds can be found in patent US6207709A, “N-substituted-2-amino-4-phenyl-4-oxo-butanoic acid compounds having kynurenine-3-hydroxy base inhibitory activity” (Pharmacia & Upjohn S.p.A., priority 1996, dated 2001).

The target of one data set is T1, kynurenine-3-hydroxylase (Rattus norvegicus, UniProt O88867).
T1 construct: evaluated in rat brain homogenate; from tissue; host or cells: rat brain homogenate (washed 12000 x g pellet)
Kind of data set: Kynurenine-3-hydroxylase assay in the rat brain (homogenate). The settings on record: L-kynurenine 50 μM, 60 min incubation, pH 7.5, read-out: IC 50, enzyme inhibition (rat brain). Type of data set: biochemical. The method, then:
(A) Kynurenine-3-hydroxylase assay in the rat brain
Brain was homogenized in ice-cold 0.32 M sucrose and centrifuged at 12000×g for 30 min at 4° C. The pellet was washed three times with 0.32 M sucrose by centrifugation and suspended in 0.14 M KCl in 20 mM K-phosphate buffer at pH 7 (1 g tissue in 2 ml buffer).
The reaction mixture contained: 75 μl of suspended homogenate; 100 μl of substrate solution containing 50 mM K-phosphate buffer pH 7.5, 2 mM MgCl2, 0.4 mM NADPH and 50 μM L-kynurenine (final concentration): 25 μl of different concentrations of inhibitor solutions). The reaction was stopped by addition of 200 μl of 1 M HClO4 after 60 min incubation. L-3-hydroxykynurenine formed was quantified by HPLC with coulometric detection at a working voltage of +0.2 V. The column was a 10 cm C18 reversed phase (3 μm. The mobile phase consisted of 950 ml distilled water, 20 ml acetonitrile, 9 ml triethylamine, 5.9 ml phosphoric acid, 100 mg sodium EDTA and 1.5 g heptanesulfonic acid. The flow rate was 1 ml/min.

Data set [1] relates to ionotropic excitatory aminoacid receptors. The settings on record: preferentially acting at the glycine co-agonist site of the NMDA receptor; cited from earlier work.
The subject of the next data set is neuronal cell cultures. The settings on record: relatively low QUIN concentrations; prolonged period of time or in combination with glutamate; cited from earlier work.
For data set [2], the system named is N-methyl-D-aspartate (NMDA) receptor. The settings on record: cited from earlier work.
For data set [3] the following is noted: cited from earlier work.

T1 sequence (O88867 whole entry): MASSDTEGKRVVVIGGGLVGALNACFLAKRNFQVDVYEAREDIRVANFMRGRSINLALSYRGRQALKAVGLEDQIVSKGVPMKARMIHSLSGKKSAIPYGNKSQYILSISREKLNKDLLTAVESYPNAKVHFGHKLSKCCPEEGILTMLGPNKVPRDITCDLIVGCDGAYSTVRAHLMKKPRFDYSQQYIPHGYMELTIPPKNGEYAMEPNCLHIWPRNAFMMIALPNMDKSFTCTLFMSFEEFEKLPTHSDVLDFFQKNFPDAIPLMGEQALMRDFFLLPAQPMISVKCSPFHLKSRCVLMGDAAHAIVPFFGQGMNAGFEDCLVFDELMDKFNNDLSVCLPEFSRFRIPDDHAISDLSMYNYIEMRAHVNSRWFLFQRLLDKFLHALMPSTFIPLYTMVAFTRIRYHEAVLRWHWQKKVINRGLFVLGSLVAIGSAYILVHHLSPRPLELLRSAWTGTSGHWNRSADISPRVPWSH

Turning to `O=C(CC(NC(=O)C(F)(F)F)C(=O)O)c1ccc(Cl)c(Cl)c1` (racemic) [FCE 29256, (R,S)-N-trifluoroacetyl-2-amino-4-oxo-4-(3',4'-dichlorophenyl)butanoic acid], the IC50 on kynurenine-3-hydroxylase worked out at 140 nM.

For `O=C(CC(NC(=O)C(F)(F)F)C(=O)O)c1ccc(F)c(F)c1` (racemic) [FCE 29434, (R,S)-N-trifluoroacetyl-2-amino-4-oxo-4-(3',4'-difluorophenyl)butanoic acid], at kynurenine-3-hydroxylase, the IC50 was found to be 270 nM.

Consider `O=C(C[C@H](NC(=O)C(F)(F)F)C(=O)O)c1ccc(Cl)c(Cl)c1` [FCE 29435, (S)-N-trifluoroacetyl-2-amino-4-oxo-4-(3',4'-dichlorophenyl)butanoic acid], for which, at kynurenine-3-hydroxylase, the IC50 came out at 240 nM.

With `O=C(O)c1cc(=O)c2ccccc2[nH]1` [KYNA, kynurenic acid], the “antagonism at ionotropic excitatory aminoacid receptors (in words)” value in data set [1] is given as “broad spectrum antagonist”.

`O=C(O)c1cccnc1C(=O)O` [QUIN, quinolinic acid]: in the data set with neuronal cell cultures, the “neurotoxicity in neuronal cell cultures (in words)” value was “neurotoxic”. Also, the “agonism at NMDA receptor (in words)” value in data set [2] is reported as “highly selective agonist”. Further, in data set [3], the “effect in vivo (in words)” value is “produce convulsions and axon sparing lesions”.
